{
  "source": "paper PMC5068912",
  "about": "(Psychopharmacology, 2016)",
  "key": {"MOR [1]": {"test_system": "MOR", "conditions": "pH 7.4"}, "DOR [2]": {"test_system": "DOR", "conditions": "in vitro; ref Mosberg et al. 2014; cited from earlier work"}, "C57BL/6 wild-type mice [3]": {"test_system": "C57BL/6 wild-type mice", "conditions": "for ED50, WWTW antinociception: mean ± SEM"}, "DOR [4]": {"test_system": "DOR", "conditions": "in vitro; ref Mosberg et al. 2014; cited from earlier work", "remark": "listed apart in the source"}, "MOR [5]": {"test_system": "MOR", "conditions": "in vitro; ref Mosberg et al. 2014; cited from earlier work"}, "mice [6]": {"test_system": "mice", "conditions": "mouse, in vivo; cited from earlier work"}, "C57BL/6 wild-type mice [7]": {"test_system": "C57BL/6 wild-type mice", "conditions": "mouse, in vivo"}, "MOR [8]": {"test_system": "MOR", "conditions": "cited from earlier work"}, "DOR [9]": {"test_system": "DOR", "conditions": "mouse, in vivo"}, "C57BL/6 wild-type mice [10]": {"test_system": "C57BL/6 wild-type mice", "conditions": "mouse, in vivo", "remark": "listed apart in the source"}, "MOR knock-out mice": {"test_system": "MOR knock-out mice", "conditions": "ip, up to 32 mg/kg, n=6"}, "mice [11]": {"test_system": "mice", "conditions": "10 mg/kg ip; ref Ramabadran 1982; cited from earlier work"}},
  "note": "Counter-ions that a name gives are not always drawn. Like-named read-outs stand apart in the source and are kept apart here.",
  "data": [
    {"molecule": "Dmt-c(SEtS)[DCys-Aic-DPen]-Ser(β-glucose)-NH2 [VRP26]", "values": [
      {"measurement": "relative efficacy at MOR", "setting": "MOR [1]", "result": 0.28},
      {"measurement": "affinity for DOR", "setting": "DOR [2]", "result": "low nanomolar affinity"},
      {"measurement": "effect of pretreatment (vehicle vs MNTX) on VRP26 antinociception", "setting": "C57BL/6 wild-type mice [3]; 10 mg/kg MNTX ip, two way ANOVA, effect of dose F(4, 40) = 393.6, p < 0.0001", "result": "no effect of pretreatment (vehicle vs MNTX)"},
      {"measurement": "ED50, WWTW antinociception", "setting": "C57BL/6 wild-type mice [3]; VRP26 ip, pretreated with 10 mg/kg MNTX ip, n=6", "result": "4.73 ± 0.13", "unit": "mg/kg"},
      {"measurement": "dose-dependence of tail withdrawal latency increase", "setting": "C57BL/6 wild-type mice [3]; VRP26 ip, vehicle and 10 mg/kg MNTX pretreated mice, n=6", "result": "dose-dependent increases in tail withdrawal latency"},
      {"measurement": "ED50, WWTW antinociception", "setting": "C57BL/6 wild-type mice [3]; VRP26 ip, vehicle pretreated mice, n=6", "result": "4.73 ± 0.22", "unit": "mg/kg"},
      {"measurement": "dose producing maximal response", "setting": "C57BL/6 wild-type mice [3]; ip, both vehicle and MNTX pretreated mice", "result": 10, "unit": "mg/kg"},
      {"measurement": "antagonism at DOR", "setting": "DOR [4]", "result": "antagonism at DOR"},
      {"measurement": "agonist activity at MOR", "setting": "MOR [5]", "result": "agonist activity at MOR similar to morphine"},
      {"measurement": "acute tolerance", "setting": "mice [6]", "result": "does not produce acute tolerance"},
      {"measurement": "antinociception, WWTW", "setting": "mice [6]", "result": "dose-dependent antinociception"},
      {"measurement": "ED50 of VRP26, day 1, saline treated group", "setting": "C57BL/6 wild-type mice [7]", "result": "5.35 ± 0.17", "unit": "mg/kg"},
      {"measurement": "ED50 of VRP26, day 8, saline treated group", "setting": "C57BL/6 wild-type mice [7]", "result": "5.07 ± 0.23", "unit": "mg/kg"},
      {"measurement": "shift in the dose response curve after chronic treatment", "setting": "C57BL/6 wild-type mice [7]", "result": "no shift in the dose response curve"},
      {"measurement": "tail withdrawal latency, wild type vs MOR knock-out littermates", "setting": "wild type littermates; 10 mg/kg ip, t(10) = 9.161, p < 0.0001", "result": "significantly increased withdrawal latency in wild type mice as compared with MOR knock-out littermates"},
      {"measurement": "dose producing maximal antinociceptive effect", "setting": "wild type littermates; ip, wild type littermates", "result": 10, "unit": "mg/kg"},
      {"measurement": "ED50, WWTW antinociception", "setting": "wild type littermates; ip, wild type littermates of MOR knock-out mice, mean ± SEM, n=6", "result": "4.77 ± 0.32", "unit": "mg/kg"},
      {"measurement": "affinity balance between MOR and DOR", "setting": "MOR [8]; discussion statement, source not given there", "result": "balanced affinity between MOR and DOR"},
      {"measurement": "affinity for MOR", "setting": "MOR [8]; in vitro, ref Mosberg et al. 2014", "result": "low nanomolar affinity"},
      {"measurement": "SNC80-induced decrease in immobility after pretreatment", "setting": "DOR [9]", "result": "partially blocked SNC80-induced decreases in immobility"},
      {"measurement": "immobility, compound alone vs control", "setting": "DOR [9]; sc, 10 mg/kg", "result": "no effect on immobility as compared with control"},
      {"measurement": "dose producing maximal antinociceptive effect", "setting": "C57BL/6 wild-type mice [10]", "result": 10, "unit": "mg/kg"},
      {"measurement": "lowest, maximally-effective, acute dose in the WWTW assay", "setting": "C57BL/6 wild-type mice [10]", "result": 10, "unit": "mg/kg"},
      {"measurement": "ED50, WWTW antinociception", "setting": "C57BL/6 wild-type mice [10]; ip", "result": "5.44 ± 0.10", "unit": "mg/kg"},
      {"measurement": "ED50, WWTW antinociception", "setting": "C57BL/6 wild-type mice [10]; sc", "result": "5.08 ± 0.23", "unit": "mg/kg"},
      {"measurement": "increase in tail withdrawal latency", "setting": "MOR knock-out mice", "result": "failed to produce a significant increase in tail withdrawal latency up to 32 mg/kg"}
    ]},
    {"molecule": "Oc1ccc2c3c1O[C@H]1c4[nH]c5ccccc5c4C[C@@]4(O)[C@@H](C2)N(CC2CC2)CC[C@]314", "note": "[NTI, Naltrindole HCl, reference compound]", "values": [
      {"measurement": "SNC80-induced decrease in immobility after pretreatment", "setting": "DOR [9]", "result": "blocked"},
      {"measurement": "immobility in NTI pretreated mice vs vehicle treated mice", "setting": "DOR [9]", "result": "not statistically different from immobility in vehicle treated mice"}
    ]},
    {"molecule": "C[N+]1(CC2CC2)CC[C@]23c4c5ccc(O)c4O[C@H]2C(=O)CC[C@@]3(O)[C@H]1C5", "note": "(some centres unmarked) [MNTX, methylnaltrexone HBr]", "values": [
      {"measurement": "block of opioid effects", "setting": "mice [11]", "result": "block peripheral, but not central, effects of opioids"}
    ]}
  ]
}
